Data on seven molecules can be found in PubChem BioAssay (NCI).

Structures are written as SMILES.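 Grown in 96-well plates, cells were treated for 48 hours with each compound at five concentrations. Insufficient inhibition: endpoint recorded as highest concentration tested. At the GI50, growth is halved. The concentration for full growth arrest is given as TGI.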 Bounds are passed on as bounds.

Assay in all cases: NCI-60 cell line screen, 48 h
The subject of test [1] is HOP-62 NSCLC.
Test [2] deals with MCF7 breast.
Test [3] relates to MDA-MB-231 breast.
In test [4] the test system is RPMI-8226 leukemia.
In test [5] the test system is RXF 393 renal.
Test [6] has as its system SK-MEL-5 melanoma.
Test [7] relates to NCI-H522 lung.
The subject of test [8] is DLD-1 colon.
Test [9] has as its system DMS 114 small cell lung.
Test [10] concerns M19-MEL melanoma.

For `CC(=S)NC1C(Oc2ccc3c(C)cc(=O)oc3c2)OC(CO)C(O)C1O` (stereo not given), the TGI in test [1], in test [2], in [3], in [4], in test [5] and in test [6] was above 100 µM each time.
Take `C[Si](C)(C)C1=C2C(=O)c3ccccc3C(=O)C2=C([Si](C)(C)C)[C@@H]2CCCC[C@H]12`: the TGI in [2], in [3], in test [7], in test [4], in [5] and in test [6] was above 100 µM each time.
Turning to `CC(C)OP(=O)(OC(C)C)c1ncn(-c2ccc([N+](=O)[O-])cc2)n1`, the TGI in test [8], in test [9], in test [1], in test [10], in [7] and in [4] was above 100 µM each time. Moreover, the TGI in test [5] and in [6] was above 100 µM in each case.
Take `Cc1cccc2ns[s+]c12`: the TGI was above 100 µM in test [8]; 58.1 µM in [9]; above 100 µM in [1]; above 100 µM in test [4]; above 100 µM in test [6].
Take `COc1ccc2c(c1)CCC1C2CCC2(C)C1CC[C@@]2(O)CNC(=O)/C=C/c1ccc(O)c(O)c1` (stereo not given in full): the GI50 in [1] is 5.59 µM; in test [2] it was 3.66 µM; in [3], 2.43 µM; in test [7], 0.503 µM; in test [5], 3.98 µM; in test [6], 3.41 µM. Further, the TGI in test [1] was 79.1 µM; in test [2], above 100 µM; in [3] it was 10 µM; in [7], 2.19 µM; in [5], 16.7 µM; in [6] it was 9.6 µM.
For the molecule `O=C(CCc1nnc2s/c(=C\c3ccc(Cl)cc3Cl)c(=O)n12)Nc1cc(Cl)c(Cl)cc1Cl`, the GI50 in [8], in [9], in test [1], in test [10], in test [4] and in [6] was above 100 µM each time. The TGI in test [8], in test [9], in [1], in [10], in test [7] and in test [4] was above 100 µM each time. In test [6], this molecule yielded a TGI above 100 µM.
Consider `CN1C(=N\S(=O)(=O)c2ccc(Cl)cc2)/C(=N/N=P(c2ccccc2)(c2ccccc2)c2ccccc2)c2ccccc21`, for which the TGI in test [8], in test [10], in [7], in test [5] and in [6] was above 100 µM in each case.
